Series [1] can be described thus: Satellite terminal tissue sampling after i.v. dosing. The format is in vivo. Conditions: n = 3 mice; for concentration at 0.5 h / concentration at 4 h: CD-1, mouse, iv, 1 mg kg^−1; for concentration at 0.5 h: 0.5 h post i.v. dosing. The protocol:
Finally, to gain an understanding of the propensity for SSAs 3 and 5 to diffuse from the mouse circulatory system into the mouse tissues, satellite terminal tissue sampling was also performed.

Series [2] is described as follows: Mouse i.v. blood pharmacokinetic study. Type of series: in vivo, female CD-1 mice. Conditions: for enterohepatic recirculation: blood concentration-time profile, in words; for clearance: female, CD-1, mouse, 1 mg/kg, read-out: Cl blood; for clearance / Vd: SSA 3 derived based on AUC0–7h; for Cmax: 2% DMSO/98% H2O. Here is the method: Within these studies SSAs 3 and 5 were dosed at 1 mg kg^−1, to female CD-1 mice (n = 9 per SSA) via an intravenous tail vein bolus dose formulation as solutions in 2% DMSO/98% water. Blood taken from the mouse tail vein was extracted by protein precipitation and SSA concentration calculated. The results of these studies are shown in Fig. 12 and Table 4. page 8: For the purpose of fu and SSA-3 PK determination, samples were analysed using a Waters I-Class ultra-high-performance liquid chromatography (UHPLC) system coupled to a Waters Xevo TQ-XS mass spectrometer. Separation of analytes was achieved using an Accucore Vanquish C18+ column (1.5 µm, 50 x 2.1 mm) at a temperature of 40°C and a binary mobile phase gradient at a flow rate of 0.4 mL/min. Initial LC conditions comprised 66% solvent A (0.1% formic acid + 5 mM ammonium acetate in water), 33% solvent B (0.1% formic acid + 5 mM ammonium acetate in methanol); this was ramped to 63% B at 1.8 min and 95% B at 1.9 min, held for 0.5 min and then immediately returned to initial conditions and held for the remaining 0.5 min of the method. Sample analysis was by electrospray ionisation combined with multiple reaction monitoring in negative ion mode. The capillary voltage was 0.8 kV, desolvation gas was 600°C. For the purpose of apparent permeability determination, samples were analysed using a Waters I- Class ultra-high-performance liquid chromatography (UHPLC) system coupled to a Waters Vion mass spectrometer (Waters, Elstree, UK). Separation of analytes was achieved used an Accucore Vanquish C18+ column (1.5 µm, 50 x 2.1 mm) at a temperature of 40°C and a binary mobile phase gradient at a flow rate of 0.4 mL/min. Initial LC conditions for SSA 1-4 comprised 66% solvent A (0.1% formic acid + 5 mM ammonium acetate in water), 33% solvent B (0.1% formic acid + 5 mM ammonium acetate in methanol); this was ramped to 63% B at 1.8 min and 95% B at 1.9 min, held for 0.5 min and then immediately returned to initial conditions and held for the remaining 0.5 min of the method. Initial LC conditions for SSA 5-10 comprised 54% solvent A (0.1% formic acid + 5 mM ammonium acetate in water), 46% solvent B (0.1% formic acid + 5 mM ammonium acetate in methanol); this was ramped to 67% B at 1.8 min and 95% B at 1.9 min, held for 0.5 min and then immediately returned to initial conditions and held for the remaining 0.5 min of the method. Sample analysis was by electrospray ionisation in negative ion mode. The capillary voltage was 2.5 kV, desolvation gas was 600°C. For the purpose of PK determination of SSA 5, samples were analysed using a Waters I-Class ultra- high-performance liquid chromatography (UHPLC) system coupled to a Waters Xevo TQ-XS mass spectrometer. Separation of analytes was achieved using an Accucore Vanquish C18+ column (1.5 µm, 50 x 2.1 mm) at a temperature of 40°C and a binary mobile phase gradient at a flow rate of 0.4 mL/min. Initial LC conditions comprised 54% solvent A (0.1% formic acid + 5 mM ammonium acetate in water), 46% solvent B (0.1% formic acid + 5 mM ammonium acetate in methanol); this was ramped to 67% B at 1.8 min and 95% B at 1.9 min, held for 0.5 min and then immediately returned to initial conditions and held for the remaining 0.5 min of the method. Sample analysis was by electrospray ionisation combined with multiple reaction monitoring in negative ion mode. The capillary voltage was 0.8 kV, desolvation gas was 600°C. Mean blood concentration-time profile: Within these studies SSAs 3 and 5 were dosed at 1 mg/kg, to female CD-1 mice (n=9 per SSA) via an intravenous tail vein bolus dose formulation as solutions in 2 % DMSO/98 % water. Blood taken from the mouse tail vein was extracted by protein precipitation. SSA concentrations were calculated through UPLC-MS/MS techniques, with tolbutamide as the internal standard. The assay met the acceptance criteria with >7 calibration standards within ± 20% of nominal concentration. The lower limit of quantitation was 2 ng/mL for both compounds. […]

Setting [3] is: liver, read-out: Concentration of SSA in liver.
Where [4] appears, read: liver, 4.0 h post i.v. dosing, read-out: Concentration of SSA in liver.
Where [5] appears, read: lung, read-out: Concentration of SSA in lung.
The mark [6] stands for this setting: muscle, read-out: Concentration of SSA in muscle.
The mark [7] stands for this setting: blood, iv, i.v. 1 mg kg^−1, female CD-1 mice.
The mark [8] stands for this setting: i.v. 1 mg kg^−1, female CD-1 mice.
The mark [9] stands for this setting: mouse, blood, iv, i.v. 1 mg kg^−1, female CD-1 mice.
[10] abbreviates: mouse, iv, blood, i.v. 1 mg kg^−1, female CD-1 mice.

Read-outs that look alike come from different tables or passages of the source.

As usually defined, the Vd is a proportionality between amount in the body and measured concentration, not a real space. High values mean extensive tissue distribution, low ones confinement near the circulation. Broadly, the Cmax is the highest concentration seen after dosing. What is called AUC(0-t) is the area under the concentration-time curve up to a stated or last time point. Low values mean less exposure, high ones more exposure. What is called Tmax is the time from dosing to the highest level. As for `O=C(NCS(=O)(=O)O)Nc1ccc(C(F)(F)F)cc1` [SSA 3], the “Concentration of SSA in muscle” value in series [1] (4.0 h post i.v. dosing) is given as “BLQ”. Also, the values for the concentration at 0.5 h in series [1] (setting [3]), in series [1] (setting [5]) and in series [1] (setting [6]) were 1230 nM, 86 nM and 86 nM, respectively. In addition, the concentration at 4 h worked out at 206 nM in series [1] (setting [4]) and 18 nM in series [1] (lung, 4.0 h post i.v. dosing, read-out: Concentration of SSA in lung). For the same compound, the “Blood concentration of SSA” value came out at 344 nM in series [2] (0.5 h post i.v. dosing) and 99 nM in series [2] (4.0 h post i.v. dosing). Besides, the enterohepatic recirculation entry in series [2] (i.v. 1 mg kg^−1) is reported as “undergoing enterohepatic recirculation”. In series [2] (setting [7]), the clearance came out at 25 mL/min/kg. Moreover, in series [2] (setting [8]), the “Cl blood as % liver blood flow (LBF)” value was 28 % LBF. The compound also displayed a volume of distribution (Vd) in series [2] (setting [9]) of 0.8 L/kg. In addition, the Cmax in series [2] (setting [10]) turned out to be 8090 nM. Besides, in series [2] (setting [10]), the AUC(0-t) was 2.28 µM·h. In addition, the time of peak concentration (Tmax) in series [2] (setting [10]) turned out to be 4.98 min.

One may read the half-life as the time in which the quantity being followed falls by half. A word on the AUC(0-inf): it is the area under the concentration-time curve extrapolated to infinity. Regarding `O=C(NCS(=O)(=O)O)Nc1ccccc1-c1nc2ccccc2s1` [SSA 5], in series [1] (4.0 h post i.v. dosing), the “Concentration of SSA in lung” value was “BLQ” and the “Concentration of SSA in muscle” value was “BLQ”. Further, the concentration at 0.5 h in series [1] (setting [3]) is 2200 nM. Moreover, the concentration at 4 h in series [1] (setting [4]) came to 429 nM. Moreover, the concentration at 0.5 h in series [1] (setting [5]) was determined as 153 nM. In series [1] (setting [6]), the concentration at 0.5 h came out at 172 nM. The “Blood concentration of SSA” value in series [2] (0.5 h post i.v. dosing) came out at 643 nM. Besides, the “Blood concentration of SSA” value in series [2] (4.0 h post i.v. dosing) is listed as 11 nM. For the same compound, the enterohepatic recirculation entry in series [2] (i.v. 1 mg kg^−1) is “did not show any evidence of enterohepatic recirculation”. In addition, the clearance in series [2] (setting [7]) is roughly 31 mL/min/kg. The “Cl blood as % liver blood flow (LBF)” value in series [2] (setting [8]) is recorded as 34 % LBF. In series [2] (mouse, blood, iv, elimination half-life, i.v. 1 mg kg^−1, female CD-1 mice), this compound had a half-life of 42 min. For the same compound, the distribution volume (Vd) in series [2] (setting [9]) worked out at 0.9 L/kg. In series [2] (setting [10]), the peak level (Cmax) was 4050 nM, the AUC(0-inf) was 1.46 µM·h, the area under the curve AUC(0-t) came to 1.45 µM·h and the Tmax came to 4.98 min.

Source of the values: paper PMC9400670, “Establishing the selective phospholipid membrane coordination, permeation and lysis properties for a series of ‘druggable’ supramolecular self-associating antimicrobial amphiphiles” (Chemical Science, 2022).
